Legend:
human JAK1 = human JAK1 (Homo sapiens (Human), UniProt P23458); test: JAK1 TR-FRET kinase assay; assay type: biochemical; conditions: TR-FRET, JAK1 2.5 nM
human JAK2 = human JAK2 (Homo sapiens (Human), UniProt O60674); test: JAK2 TR-FRET kinase assay; assay type: biochemical; conditions: JAK2 0.025 nM
human JAK3 = human JAK3 (Homo sapiens (Human), UniProt P52333); test: JAK3 TR-FRET kinase assay; assay type: biochemical; conditions: JAK3 0.0125 nM
TYK2 JH2 domain = TYK2 JH2 domain (Homo sapiens (Human), UniProt P29597); test: TYK2 JH2 NanoBRET assay; assay type: binding; conditions: Table 20, read-out: TYK2 IC50
Summary of the method: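 HEK293T cells transiently expressing NanoLuc-TYK2 JH2 fusion, incubated 2 h with compound and NanoBRET K10 tracer (0.5 µM final). Target engagement read as acceptor/donor BRET ratio after Nano-Glo substrate plus extracellular NanoLuc inhibitor.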

Sequence of TYK2 JH2 domain (P29597 589-875): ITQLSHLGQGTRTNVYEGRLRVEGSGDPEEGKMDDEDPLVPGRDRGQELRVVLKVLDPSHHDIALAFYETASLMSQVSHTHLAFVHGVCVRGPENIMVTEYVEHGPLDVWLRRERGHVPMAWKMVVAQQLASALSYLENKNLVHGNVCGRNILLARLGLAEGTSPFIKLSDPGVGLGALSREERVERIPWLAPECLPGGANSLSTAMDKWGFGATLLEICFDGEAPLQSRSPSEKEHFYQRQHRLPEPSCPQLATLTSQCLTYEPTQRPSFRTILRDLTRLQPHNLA
Sequence of human JAK2 (O60674 whole entry): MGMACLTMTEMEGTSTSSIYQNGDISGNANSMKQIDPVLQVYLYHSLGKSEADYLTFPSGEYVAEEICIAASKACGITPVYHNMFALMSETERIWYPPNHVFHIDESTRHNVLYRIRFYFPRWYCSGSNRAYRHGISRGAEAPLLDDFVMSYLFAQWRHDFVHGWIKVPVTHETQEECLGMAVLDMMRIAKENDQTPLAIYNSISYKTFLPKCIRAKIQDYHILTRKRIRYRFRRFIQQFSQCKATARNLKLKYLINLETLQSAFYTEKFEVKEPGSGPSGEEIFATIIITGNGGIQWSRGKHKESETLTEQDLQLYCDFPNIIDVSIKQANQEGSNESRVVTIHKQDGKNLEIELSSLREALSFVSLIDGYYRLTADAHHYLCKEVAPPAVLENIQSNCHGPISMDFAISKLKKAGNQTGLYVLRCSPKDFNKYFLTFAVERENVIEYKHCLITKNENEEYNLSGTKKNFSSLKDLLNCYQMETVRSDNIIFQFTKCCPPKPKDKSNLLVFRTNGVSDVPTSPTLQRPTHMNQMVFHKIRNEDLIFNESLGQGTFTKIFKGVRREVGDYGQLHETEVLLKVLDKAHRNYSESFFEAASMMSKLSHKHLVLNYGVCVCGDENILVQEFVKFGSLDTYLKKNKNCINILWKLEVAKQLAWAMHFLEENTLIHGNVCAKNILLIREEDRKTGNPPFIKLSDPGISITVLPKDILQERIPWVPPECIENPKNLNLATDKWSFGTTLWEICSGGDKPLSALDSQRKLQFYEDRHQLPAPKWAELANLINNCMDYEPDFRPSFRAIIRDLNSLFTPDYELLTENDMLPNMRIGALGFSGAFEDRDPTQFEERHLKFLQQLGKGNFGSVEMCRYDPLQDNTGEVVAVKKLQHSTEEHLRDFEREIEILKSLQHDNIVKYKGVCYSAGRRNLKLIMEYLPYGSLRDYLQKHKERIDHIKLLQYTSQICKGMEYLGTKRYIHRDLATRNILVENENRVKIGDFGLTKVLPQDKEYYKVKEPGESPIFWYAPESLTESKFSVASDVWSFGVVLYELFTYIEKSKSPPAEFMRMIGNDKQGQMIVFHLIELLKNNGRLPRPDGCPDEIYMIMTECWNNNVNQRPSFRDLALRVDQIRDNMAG
Sequence of human JAK3 (P52333 whole entry, the tested form may be a part): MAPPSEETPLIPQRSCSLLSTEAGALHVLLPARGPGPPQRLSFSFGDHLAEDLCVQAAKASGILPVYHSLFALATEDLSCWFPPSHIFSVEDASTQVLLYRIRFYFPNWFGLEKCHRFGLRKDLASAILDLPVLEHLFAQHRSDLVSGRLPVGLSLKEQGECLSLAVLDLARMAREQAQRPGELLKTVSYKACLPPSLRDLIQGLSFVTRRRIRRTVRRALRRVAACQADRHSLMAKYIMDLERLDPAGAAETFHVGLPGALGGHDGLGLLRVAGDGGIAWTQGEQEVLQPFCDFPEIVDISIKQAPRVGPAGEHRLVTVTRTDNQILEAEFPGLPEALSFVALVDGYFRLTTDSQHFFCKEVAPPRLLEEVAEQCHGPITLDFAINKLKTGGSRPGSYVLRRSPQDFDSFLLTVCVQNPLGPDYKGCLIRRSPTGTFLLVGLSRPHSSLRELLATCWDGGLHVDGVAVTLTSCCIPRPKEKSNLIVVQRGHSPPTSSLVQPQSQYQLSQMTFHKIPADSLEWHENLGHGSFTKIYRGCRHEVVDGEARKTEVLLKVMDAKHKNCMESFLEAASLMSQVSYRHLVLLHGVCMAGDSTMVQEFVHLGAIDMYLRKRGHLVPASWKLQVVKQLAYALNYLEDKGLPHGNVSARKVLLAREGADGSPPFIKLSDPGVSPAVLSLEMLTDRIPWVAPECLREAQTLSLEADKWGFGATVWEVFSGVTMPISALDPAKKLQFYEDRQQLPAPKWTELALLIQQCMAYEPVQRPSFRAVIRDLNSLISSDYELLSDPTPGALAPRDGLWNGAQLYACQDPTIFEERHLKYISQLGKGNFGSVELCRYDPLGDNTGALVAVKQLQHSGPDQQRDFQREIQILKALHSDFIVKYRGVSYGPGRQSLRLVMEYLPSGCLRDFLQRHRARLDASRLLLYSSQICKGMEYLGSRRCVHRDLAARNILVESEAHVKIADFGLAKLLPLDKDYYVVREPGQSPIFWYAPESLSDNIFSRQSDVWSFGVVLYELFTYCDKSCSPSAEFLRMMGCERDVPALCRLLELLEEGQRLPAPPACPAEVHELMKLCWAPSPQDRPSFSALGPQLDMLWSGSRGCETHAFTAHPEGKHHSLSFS
Sequence of human JAK1 (P23458 whole entry): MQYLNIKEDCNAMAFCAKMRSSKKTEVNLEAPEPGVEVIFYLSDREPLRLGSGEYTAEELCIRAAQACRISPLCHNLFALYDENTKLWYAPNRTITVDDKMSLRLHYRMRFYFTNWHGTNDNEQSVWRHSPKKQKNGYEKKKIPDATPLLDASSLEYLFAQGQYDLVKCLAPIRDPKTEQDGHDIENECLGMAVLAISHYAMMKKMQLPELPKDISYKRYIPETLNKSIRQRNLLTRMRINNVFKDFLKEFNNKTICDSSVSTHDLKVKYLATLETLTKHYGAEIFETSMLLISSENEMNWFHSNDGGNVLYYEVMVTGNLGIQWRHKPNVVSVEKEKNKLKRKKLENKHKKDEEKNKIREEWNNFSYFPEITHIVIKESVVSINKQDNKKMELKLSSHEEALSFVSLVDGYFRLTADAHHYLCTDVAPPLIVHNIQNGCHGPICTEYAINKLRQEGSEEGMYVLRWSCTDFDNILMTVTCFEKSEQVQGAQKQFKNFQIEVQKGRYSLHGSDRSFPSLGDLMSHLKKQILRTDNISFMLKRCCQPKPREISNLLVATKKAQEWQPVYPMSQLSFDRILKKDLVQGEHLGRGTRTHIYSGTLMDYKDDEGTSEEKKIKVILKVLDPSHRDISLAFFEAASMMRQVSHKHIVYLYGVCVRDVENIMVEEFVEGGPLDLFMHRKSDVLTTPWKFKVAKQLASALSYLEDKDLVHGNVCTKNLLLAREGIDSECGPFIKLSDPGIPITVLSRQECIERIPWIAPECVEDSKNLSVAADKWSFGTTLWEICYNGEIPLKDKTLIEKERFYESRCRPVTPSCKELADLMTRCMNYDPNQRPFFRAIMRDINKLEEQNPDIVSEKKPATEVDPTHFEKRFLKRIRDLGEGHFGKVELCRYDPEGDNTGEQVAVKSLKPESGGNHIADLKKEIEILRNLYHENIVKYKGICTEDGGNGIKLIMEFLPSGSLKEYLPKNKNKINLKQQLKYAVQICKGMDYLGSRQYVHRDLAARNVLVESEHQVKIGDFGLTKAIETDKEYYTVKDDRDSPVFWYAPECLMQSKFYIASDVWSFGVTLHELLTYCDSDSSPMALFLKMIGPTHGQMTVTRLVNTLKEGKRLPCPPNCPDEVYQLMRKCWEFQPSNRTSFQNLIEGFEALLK

SMILES	IC50 (human JAK1)	IC50 (human JAK2)	IC50 (human JAK3)	IC50 (TYK2 JH2 domain)
CCC(=O)c1cnc(Nc2ncc(CS(C)(=O)=O)cc2F)cc1Nc1cccc(-c2ncn(C)n2)c1OC [Compound 13AA]	≥ 500 nM	≥ 500 nM	≥ 500 nM	5 to 50 nM
CCC(=O)c1cnc(Nc2ccc(S(N)(=O)=O)cn2)cc1Nc1cccc(-c2ncn(C)n2)c1OC [Compound 13B]	≥ 500 nM	≥ 500 nM	≥ 500 nM	< 5 nM
CCC(=O)c1cnc(Nc2ccc(S(=O)(=O)NC)cn2)cc1Nc1cccc(-c2ncn(C)n2)c1OC [Compound 13C]	≥ 500 nM	≥ 500 nM	≥ 500 nM	5 to 50 nM
CCC(=O)c1cnc(Nc2ccc(S(=O)(=O)N3CCOCC3)cn2)cc1Nc1cccc(-c2ncn(C)n2)c1OC [Compound 13E]	≥ 500 nM	≥ 500 nM	≥ 500 nM	< 5 nM
CCC(=O)c1cnc(Nc2ccc(CS(C)(=N)=O)cn2)cc1Nc1cccc(-c2ncn(C)n2)c1OC (stereo not shown) [Compound 13F]	≥ 500 nM	≥ 500 nM	≥ 500 nM	5 to 50 nM
CCC(=O)c1cnc(Nc2ccc(S(=O)(=O)CC)cn2)cc1Nc1cccc(-c2ncn(C)n2)c1OC [Compound 13G]	≥ 500 nM	≥ 500 nM	≥ 500 nM	< 5 nM
CCC(=O)c1cnc(Nc2ccc(S(=O)(=O)C3CC3)cn2)cc1Nc1cccc(-c2ncn(C)n2)c1OC [Compound 13H]	≥ 500 nM	50 to 500 nM	50 to 500 nM	< 5 nM
CCC(=O)c1cnc(Nc2ccc(S(C)(=O)=O)cn2)cc1Nc1nccc(-c2ncn(C)n2)c1OC [Compound 13I]	≥ 500 nM	≥ 500 nM	≥ 500 nM	< 5 nM
CCC(=O)c1cnc(Nc2ccc(S(=O)(=O)CC)cn2)cc1Nc1nccc(-c2ncn(C)n2)c1OC [Compound 13J]	≥ 500 nM	≥ 500 nM	≥ 500 nM	< 5 nM
CCC(=O)c1cnc(Nc2ccc(S(=O)(=O)C3CC3)cn2)cc1Nc1nccc(-c2ncn(C)n2)c1OC [Compound 13K]	≥ 500 nM	50 to 500 nM	50 to 500 nM	5 to 50 nM
CCC(=O)c1cnc(Nc2ccc(S(C)(=N)=O)cn2)cc1Nc1nccc(-c2ncn(C)n2)c1OC (stereo not shown) [Compound 13L]	≥ 500 nM	≥ 500 nM	≥ 500 nM	≥ 500 nM
CCC(=O)c1cnc(Nc2ccc(CS(C)(=O)=O)cn2)cc1Nc1nccc(-c2ncn(C)n2)c1OC [Compound 13M]	≥ 500 nM	50 to 500 nM	≥ 500 nM	< 5 nM
CCC(=O)c1cnc(Nc2cccc(CS(C)(=O)=O)n2)cc1Nc1cccc(-c2ncn(C)n2)c1OC [Compound 13N]	≥ 500 nM	50 to 500 nM	50 to 500 nM	5 to 50 nM
CCC(=O)c1cnc(Nc2ccc(S(C)(=O)=O)cn2)cc1Nc1cccc(CO)c1OC [Compound 13P]	≥ 500 nM	≥ 500 nM	50 to 500 nM	5 to 50 nM
CCC(=O)c1cnc(Nc2ccc(S(C)(=O)=O)cn2)cc1Nc1cccc(C(C)O)c1OC (stereo not shown) [Compound 13Q]	≥ 500 nM	≥ 500 nM	≥ 500 nM	5 to 50 nM
CCC(=O)c1cnc(Nc2ccc(S(C)(=O)=O)cn2)cc1Nc1cccc(COC)c1OC [Compound 13R]	≥ 500 nM	≥ 500 nM	≥ 500 nM	5 to 50 nM
CCC(=O)c1cnc(Nc2ccc(CS(C)(=O)=O)nn2)cc1Nc1cccc(-c2ncn(C)n2)c1OC [Compound 13T]	≥ 500 nM	≥ 500 nM	≥ 500 nM	5 to 50 nM
CCC(=O)c1cnc(Nc2cnc(CS(C)(=O)=O)cn2)cc1Nc1cccc(-c2ncn(C)n2)c1OC [Compound 13U]	≥ 500 nM	≥ 500 nM	≥ 500 nM	5 to 50 nM
CCC(=O)c1cnc(Nc2ccc(C3(S(C)(=O)=O)CC3)nn2)cc1Nc1cccc(-c2ncn(C)n2)c1OC [Compound 13V]	≥ 500 nM	≥ 500 nM	≥ 500 nM	< 5 nM

From patent US20230295119A1, “SUBSTITUTED PYRIDINES FOR THE TREATMENT OF INFLAMMATORY DISEASES” (GOSSAMER BIO SERVICES, INC., priority 2020, published 2023)
